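Test compounds were applied to cells in 96-well plates for 48 hours at 5 doses. At the GI50, growth is halved.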 Active and inactive are the calls of the source. No stated cut-off is given here; in the data, active = GI50 up to about 1.1 µM and inactive = higher.
Experiments:
Assay in all cases: DTP human tumour cell line panel, 48 h
NCI-H226 = test system: NCI-H226
MDA-N = test system: MDA-N
ACHN = test system: ACHN
HOP-62 = test system: HOP-62
NCI-H23 = test system: NCI-H23
SK-MEL-5 = test system: SK-MEL-5
OVCAR-8 = test system: OVCAR-8
HOP-92 = test system: HOP-92
PC-3 = test system: PC-3
CCRF-CEM = test system: CCRF-CEM
Hs-578T = test system: Hs-578T
HT-29 = test system: HT-29
U-251 = test system: U-251
MDA-MB-231 = test system: MDA-MB-231
MDA-MB-435 = test system: MDA-MB-435
SF-295 = test system: SF-295
NCI-H460 = test system: NCI-H460
NCI/ADR-RES = test system: NCI/ADR-RES
MCF7 = test system: MCF7
UACC-257 = test system: UACC-257
LOX IMVI = test system: LOX IMVI
SK-MEL-2 = test system: SK-MEL-2
SW-620 = test system: SW-620
K562 = test system: K562
786-0 = test system: 786-0
SF-268 = test system: SF-268
UACC-62 = test system: UACC-62
IGROV-1 = test system: IGROV-1
SF-539 = test system: SF-539
OVCAR-4 = test system: OVCAR-4
SR = test system: SR
A498 = test system: A498
SNB-19 = test system: SNB-19
RXF 393 = test system: RXF 393
HCC 2998 = test system: HCC 2998
A549 = test system: A549
MOLT-4 = test system: MOLT-4
NCI-H522 = test system: NCI-H522
OVCAR-3 = test system: OVCAR-3
DU-145 = test system: DU-145
BT-549 = test system: BT-549
HCT-15 = test system: HCT-15
SK-MEL-28 = test system: SK-MEL-28
SN12C = test system: SN12C
EKVX = test system: EKVX
M14 = test system: M14
HCT-116 = test system: HCT-116
CAKI-1 = test system: CAKI-1
COLO 205 = test system: COLO 205
OVCAR-5 = test system: OVCAR-5
RPMI-8226 = test system: RPMI-8226
TK-10 = test system: TK-10
Malme-3M = test system: Malme-3M
T47D = test system: T47D
HL-60 = test system: HL-60
SNB-75 = test system: SNB-75
SK-OV-3 = test system: SK-OV-3
KM12 = test system: KM12
UO-31 = test system: UO-31

Measured: GI50

CCOC(=O)CCc1c(C)c2ccc(O)cc2oc1=O
> 100 µM: HCT-15
inactive: NCI-H226 > 100 µM | MDA-N > 100 µM | ACHN > 100 µM | HOP-62 > 100 µM | NCI-H23 > 100 µM | SK-MEL-5 > 100 µM | OVCAR-8 > 100 µM | HOP-92 > 100 µM | PC-3 > 100 µM | CCRF-CEM > 100 µM | Hs-578T > 100 µM | HT-29 > 100 µM | U-251 > 100 µM | MDA-MB-231 > 100 µM | MDA-MB-435 > 100 µM | SF-295 > 100 µM | NCI-H460 > 100 µM | NCI/ADR-RES > 100 µM | MCF7 > 100 µM | UACC-257 > 100 µM | LOX IMVI > 100 µM | SK-MEL-2 > 100 µM | SW-620 > 100 µM | K562 > 100 µM | 786-0 > 100 µM | SF-268 > 100 µM | UACC-62 > 100 µM | IGROV-1 > 100 µM | SF-539 > 100 µM | OVCAR-4 > 100 µM | SR > 100 µM | A498 > 100 µM | SNB-19 > 100 µM | RXF 393 > 100 µM | HCC 2998 > 100 µM | A549 > 100 µM | MOLT-4 > 100 µM | NCI-H522 > 100 µM | OVCAR-3 > 100 µM | DU-145 > 100 µM | BT-549 > 100 µM | SK-MEL-28 > 100 µM | SN12C > 100 µM | EKVX > 100 µM | M14 > 100 µM | HCT-116 > 100 µM | CAKI-1 > 100 µM | COLO 205 > 100 µM | OVCAR-5 > 100 µM | RPMI-8226 > 100 µM | TK-10 > 100 µM | Malme-3M > 100 µM | T47D > 100 µM | HL-60 > 100 µM | SNB-75 > 100 µM

COC(=O)c1cc(-c2ccc3ccccc3c2)nc(O)c1C#N
inactive: NCI-H226 > 100 µM | MDA-N > 100 µM | ACHN > 100 µM | HOP-62 > 100 µM | NCI-H23 > 100 µM | SK-MEL-5 > 100 µM | OVCAR-8 > 100 µM | HOP-92 > 100 µM | PC-3 > 100 µM | Hs-578T > 100 µM | HT-29 > 100 µM | U-251 > 100 µM | MDA-MB-231 > 100 µM | MDA-MB-435 > 100 µM | SF-295 > 100 µM | NCI-H460 > 100 µM | NCI/ADR-RES > 100 µM | MCF7 > 100 µM | UACC-257 > 100 µM | LOX IMVI > 100 µM | SK-MEL-2 > 100 µM | SW-620 > 100 µM | 786-0 > 100 µM | SF-268 > 100 µM | UACC-62 > 100 µM | IGROV-1 > 100 µM | SF-539 > 100 µM | OVCAR-4 > 100 µM | SR > 100 µM | A498 > 100 µM | SNB-19 > 100 µM | RXF 393 > 100 µM | HCC 2998 17.1 µM | A549 > 100 µM | NCI-H522 > 100 µM | OVCAR-3 > 100 µM | DU-145 > 100 µM | BT-549 > 100 µM | SK-MEL-28 > 100 µM | SN12C > 100 µM | EKVX 71.4 µM | M14 > 100 µM | HCT-116 > 100 µM | CAKI-1 > 100 µM | SK-OV-3 > 100 µM | COLO 205 > 100 µM | KM12 > 100 µM | OVCAR-5 > 100 µM | RPMI-8226 > 100 µM | UO-31 > 100 µM | TK-10 > 100 µM | Malme-3M > 100 µM | T47D > 100 µM | HL-60 20.3 µM | SNB-75 > 100 µM
> 100 µM: HCT-15

CCOP(=O)(CCC(O)CNc1nc(N)nc(Cl)c1/N=N/c1ccc(Cl)cc1)OCC (centres undefined)
active: HOP-92 0.377 µM
inactive: NCI-H226 16.6 µM | MDA-N 12.4 µM | ACHN 7 µM | HOP-62 12.5 µM | NCI-H23 17 µM | SK-MEL-5 12.7 µM | OVCAR-8 17.7 µM | PC-3 12.4 µM | CCRF-CEM 5.75 µM | Hs-578T 5.58 µM | HT-29 15.3 µM | U-251 11 µM | MDA-MB-231 19.3 µM | MDA-MB-435 13.2 µM | SF-295 14.3 µM | NCI-H460 11.1 µM | NCI/ADR-RES 11.5 µM | MCF7 11.5 µM | UACC-257 13.6 µM | LOX IMVI 8.67 µM | SK-MEL-2 11.6 µM | SW-620 15.9 µM | K562 13.6 µM | 786-0 7.93 µM | SF-268 15.3 µM | UACC-62 13 µM | IGROV-1 15.2 µM | SF-539 > 10 µM | OVCAR-4 5.24 µM | SR 7.87 µM | A498 10.1 µM | RXF 393 6.31 µM | HCC 2998 13.3 µM | A549 14.5 µM | MOLT-4 6.95 µM | NCI-H522 8.99 µM | OVCAR-3 10.7 µM | DU-145 14.2 µM | BT-549 7.38 µM | SK-MEL-28 11.6 µM | SN12C 17.2 µM | EKVX 18.8 µM | HCT-116 14.7 µM | CAKI-1 2.96 µM | SK-OV-3 17.7 µM | COLO 205 12.8 µM | KM12 19.1 µM | OVCAR-5 17.6 µM | RPMI-8226 8.47 µM | UO-31 4.1 µM | TK-10 14.8 µM | Malme-3M 5.2 µM | T47D 16.9 µM | HL-60 3.5 µM | SNB-75 4.5 µM
6.95 µM: HCT-15
